According to ChEMBL document CHEMBL5505958, “Optimization of sequence and chiral content enhances therapeutic potential of tilapia piscidin peptides” (Eur J Med Chem, 2024):
Values after ≈ are worked out from the molar mass of the structure shown. Active and inactive are the calls of the source. No cut-off for these calls is given here.

What was measured:
Escherichia coli [1] = test: Bactericidal activity against Escherichia coli 10675 assessed as inhibition of bacterial growth incubated for 16 to 20 hrs in presence of human serum; type: functional; settings: time 16-20 hrs
Staphylococcus aureus [2] = test: Antibacterial activity against Staphylococcus aureus 10780 assessed as inhibition of bacterial growth incubated for 16 to 20 hrs in presence of human serum; type: functional; settings: time 16-20 hrs
Klebsiella aerogenes = test: Bactericidal activity against Enterobacter aerogenes 15630 assessed as inhibition of bacterial growth incubated for 16 to 20 hrs; type: functional; settings: time 16-20 hrs
Enterococcus faecium [3] = test: Antibacterial activity against Enterococcus faecium 10067 assessed as inhibition of bacterial growth incubated for 16 to 20 hrs; type: functional; settings: time 16-20 hrs
Klebsiella pneumoniae [4] = test: Antibacterial activity against Klebsiella pneumoniae BAA 2473 assessed as inhibition of bacterial growth in presence of 10 microg/ml of proteinase K (reference value: 1.56 to 3.13 microM); type: functional
Escherichia coli [5] = test: Bactericidal activity against Escherichia coli 10675 assessed as inhibition of bacterial growth incubated for 16 to 20 hrs; type: functional; settings: time 16-20 hrs
Klebsiella pneumoniae [6] = test: Additive antibacterial activity against Klebsiella pneumoniae BAA 2473 assessed as fractional inhibitory concentration index in presence of meropenem by checkerboard assay; type: functional
Rhizopus arrhizus [7] = test: Antifungal activity against Rhizopus oryzae 34550 assessed as inhibition of fungal growth incubated for 16 to 20 hrs; type: functional; settings: time 16-20 hrs
Klebsiella pneumoniae [8] = test: Bactericidal activity against Klebsiella pneumoniae BAA 2473 assessed as inhibition of bacterial growth in presence of 1 microg/ml of trypsin (reference value: 1.56 to 3.13 microM); type: functional
Salmonella typhimurium = test: Bactericidal activity against Salmonella typhimurium DT104 assessed as inhibition of bacterial growth incubated for 16 to 20 hrs; type: functional, Salmonella enterica subsp. enterica serovar Typhimurium; settings: Salmonella enterica, time 16-20 hrs
Vibrio vulnificus = test: Antibacterial activity against Vibrio vulnificus 204 assessed as inhibition of bacterial growth incubated for 16 to 20 hrs; type: functional; settings: time 16-20 hrs
Klebsiella pneumoniae [9] = test: Antibacterial activity against Klebsiella pneumoniae BAA 2473 assessed as inhibition of bacterial growth in presence of 0.1 microg/ml of trypsin (reference value: 1.56 to 3.13 microM); type: functional
Enterococcus faecium [10] = test: Bactericidal activity against Enterococcus faecium 10067 assessed as inhibition of bacterial growth incubated for 16 to 20 hrs in presence of human serum; type: functional; settings: time 16-20 hrs
Klebsiella pneumoniae [11] = test: Bactericidal activity against Klebsiella pneumoniae BAA 2473 assessed as inhibition of bacterial growth in presence of 10 microg/ml of chymotrypsin (reference value: 1.56 to 3.13 microM); type: functional
Enterococcus faecium [12] = test: Antibacterial activity against Enterococcus faecium 10067 assessed as inhibition of bacterial growth incubated for 16 to 20 hrs in presence of human serum; type: functional; settings: time 16-20 hrs
Staphylococcus aureus [13] = test: Bactericidal activity against Staphylococcus aureus 10780 assessed as inhibition of bacterial growth incubated for 16 to 20 hrs in presence of human serum; type: functional; settings: time 16-20 hrs
Klebsiella pneumoniae [14] = test: Antibacterial activity against Klebsiella pneumoniae BAA 2473 assessed as inhibition of bacterial growth in presence of 1 microg/ml of pepsin (reference value: 1.56 to 3.13 microM); type: functional
Klebsiella pneumoniae [15] = test: Antibacterial activity against Klebsiella pneumoniae TL 297 assessed as inhibition of bacterial growth incubated for 16 to 20 hrs in presence of human serum; type: functional; settings: time 16-20 hrs
Enterococcus faecalis = test: Antibacterial activity against Enterococcus faecalis 10066 assessed as inhibition of bacterial growth incubated for 16 to 20 hrs; type: functional; settings: time 16-20 hrs
Staphylococcus aureus [16] = test: Bactericidal activity against Staphylococcus aureus 10780 assessed as inhibition of bacterial growth incubated for 16 to 20 hrs; type: functional; settings: time 16-20 hrs
Acinetobacter baumannii [17] = test: Antibacterial activity against Acinetobacter baumannii 10591 assessed as inhibition of bacterial growth incubated for 16 to 20 hrs; type: functional; settings: time 16-20 hrs
Klebsiella pneumoniae [18] = test: Antibacterial activity against Klebsiella pneumoniae BAA 2473 assessed as meropenem MIC; type: functional
Klebsiella pneumoniae [19] = test: Bactericidal activity against Klebsiella pneumoniae TL 297 assessed as inhibition of bacterial growth incubated for 16 to 20 hrs in presence of human serum; type: functional; settings: time 16-20 hrs
Pseudomonas aeruginosa [20] = test: Bactericidal activity against Pseudomonas aeruginosa 19660 assessed as inhibition of bacterial growth incubated for 16 to 20 hrs in presence of human serum; type: functional; settings: time 16-20 hrs
Escherichia coli [21] = test: Antibacterial activity against Escherichia coli 10675 assessed as inhibition of bacterial growth incubated for 16 to 20 hrs; type: functional; settings: time 16-20 hrs
Lipopolysaccharide (LPS) [22] = test: Displacement of BODIPY-TR-cadaverine from Klebsiella pneumoniae BAA 2473 lipopolysaccharide (LPS) assessed as increase in fluorescence intensity at 3.125 uM by fluorescence spectrophotometric analysis; type: subcellular
Klebsiella pneumoniae [23] = test: Antibacterial activity against Klebsiella pneumoniae BAA 2473 assessed as inhibition of bacterial growth in presence of 10 microg/ml of chymotrypsin (reference value: 1.56 to 3.13 microM); type: functional
Klebsiella pneumoniae [24] = test: Bactericidal activity against Klebsiella pneumoniae BAA 2473 assessed as inhibition of bacterial growth in presence of 0.1 microg/ml of trypsin (reference value: 1.56 to 3.13 microM); type: functional
Rhizopus arrhizus [25] = test: Fungicidal activity against Rhizopus oryzae 34550 assessed as inhibition of fungal growth incubated for 72 hrs; type: functional
Escherichia coli [26] = test: Antibacterial activity against Escherichia coli 10675 assessed as inhibition of bacterial growth incubated for 16 to 20 hrs in presence of human serum; type: functional; settings: time 16-20 hrs
Klebsiella pneumoniae [27] = test: Antibacterial activity against Klebsiella pneumoniae BAA 2473 assessed as inhibition of bacterial growth in presence of 10 microg/ml of trypsin (reference value: 1.56 to 3.13 microM); type: functional
Lipopolysaccharide (LPS) [28] = test: Displacement of BODIPY-TR-cadaverine from Klebsiella pneumoniae BAA 2473 lipopolysaccharide (LPS) assessed as increase in fluorescence intensity at 1.56 uM by fluorescence spectrophotometric analysis; type: subcellular
Acinetobacter baumannii [29] = test: Bactericidal activity against Acinetobacter baumannii 10591 assessed as inhibition of bacterial growth incubated for 16 to 20 hrs in presence of human serum; type: functional; settings: time 16-20 hrs
Acinetobacter baumannii [30] = test: Bactericidal activity against Acinetobacter baumannii 10591 assessed as inhibition of bacterial growth incubated for 16 to 20 hrs; type: functional; settings: time 16-20 hrs
Klebsiella pneumoniae [31] = test: Induction of morphological changes in Klebsiella pneumoniae BAA 2473 assessed as membrane deformations with protruding granules at by transmission electron microscopy analysis; type: functional, organism-based
[32] = system: Staphylococcus haemolyticus; test: Antibacterial activity against Staphylococcus haemolyticus 15237 assessed as inhibition of bacterial growth incubated for 16 to 20 hrs; type: functional; settings: time 16-20 hrs
Klebsiella pneumoniae [33] = test: Bactericidal activity against Klebsiella pneumoniae BAA 2473 assessed as inhibition of bacterial growth incubated for 16 to 20 hrs; type: functional; settings: time 16-20 hrs
Rhizopus arrhizus [34] = test: Antifungal activity against Rhizopus oryzae 34550 assessed as inhibition of fungal growth incubated for 16 to 20 hrs in presence of human serum; type: functional; settings: time 16-20 hrs
Salmonella enterica = test: Antibacterial activity against Salmonella enterica 15455 assessed as inhibition of bacterial growth incubated for 16 to 20 hrs in presence of human serum; type: functional; settings: time 16-20 hrs
Pseudomonas aeruginosa [35] = test: Antibacterial activity against Pseudomonas aeruginosa 19660 assessed as inhibition of bacterial growth incubated for 16 to 20 hrs in presence of human serum; type: functional; settings: time 16-20 hrs
Klebsiella pneumoniae [36] = test: Bactericidal activity against Klebsiella pneumoniae BAA 2473 assessed as inhibition of bacterial growth in presence of 0.1 microg/ml of chymotrypsin (reference value: 1.56 to 3.13 microM); type: functional

In the case of CC(C)C[C@H](NC(=O)[C@@H](C)NC(=O)[C@@H](CCCCN)NC(=O)[C@H](CC(C)C)NC(=O)[C@@H](CC(C)C)NC(=O)[C@@H](CCCCN)NC(=O)[C@H](CCCCN)NC(=O)[C@@H](CC(C)C)NC(=O)[C@H](N)Cc1ccccc1)C(=O)N[C@H](Cc1ccccc1)C(=O)N[C@H](CO)C(=O)N[C@@H](C)C(=O)N1CCC[C@@H]1C(=O)N[C@H](CCCCN)C(=O)N[C@@H](C)C(=O)N[C@H](CC(C)C)C(=O)N[C@H](CCCCN)C(=O)N[C@@H](CCCNC(=N)N)C(=O)N[C@H](CC(C)C)C(=O)N[C@H](CC(C)C)C(=O)N[C@@H](CCCNC(=N)N)C(=O)N[C@H](CCCNC(=N)N)C(=O)N[C@H](CCCNC(=N)N)C(=O)N[C@@H](CCCNC(=N)N)C(=O)N[C@@H](CCCNC(=N)N)C(=O)O, the MBC (Escherichia coli [1]) is reported as 0.78 µM, the MIC (Staphylococcus aureus [2]) is reported as 6.25 µM and the MBC (Klebsiella aerogenes) is reported as 3.13 µM (≈ 9.64 µg/mL). The MIC (Enterococcus faecium [3]) was 3.13 µM (≈ 9.64 µg/mL), the MIC (Klebsiella pneumoniae [4]) was 0.78 µM and the MBC (Escherichia coli [5]) was 1.56 µM (≈ 4.8 µg/mL). The “fractional inhibitory concentration index (FICI)” value (Klebsiella pneumoniae [6]) was 1.003, the MIC (Rhizopus arrhizus [7]) was 1.56 µM (≈ 4.8 µg/mL) and the MBC (Klebsiella pneumoniae [8]) was 1.56 µM. The MBC (Salmonella typhimurium) was 3.13 µM (≈ 9.64 µg/mL), the MIC (Vibrio vulnificus) was 6.25 µM (≈ 19.2 µg/mL) and the MIC (Klebsiella pneumoniae [9]) was 0.78 µM. It also gave an MBC (Enterococcus faecium [10]) of 100 µM, an MBC (Klebsiella pneumoniae [11]) of 0.78 µM and an MIC (Enterococcus faecium [12]) of 100 µM. The MBC (Staphylococcus aureus [13]) was > 100 µM, the MIC (Klebsiella pneumoniae [14]) was 0.78 µM and the MIC (Klebsiella pneumoniae [15]) was 1.56 µM. For the same molecule, the MIC (Enterococcus faecalis) was > 25 µM, the MBC (Staphylococcus aureus [16]) was 6.25 µM (≈ 19.2 µg/mL) and the MIC (Acinetobacter baumannii [17]) was 3.13 µM (≈ 9.64 µg/mL). For the same molecule, the MIC (Klebsiella pneumoniae [18]) was 400 µM, the MBC (Klebsiella pneumoniae [19]) was 1.56 µM and the MBC (Pseudomonas aeruginosa [20]) was 3.13 µM. It also gave an MIC (Escherichia coli [21]) of 1.56 µM (≈ 4.8 µg/mL), an Activity (Lipopolysaccharide (LPS) [22]) of 100% and an MIC (Klebsiella pneumoniae [23]) of 0.78 µM. It also gave an MBC (Klebsiella pneumoniae [24]) of 1.56 µM, an MFC (Rhizopus arrhizus [25]) of 1.56 µM (≈ 4.8 µg/mL) and an MIC (Escherichia coli [26]) of 0.78 µM. For the same molecule, the MIC (Klebsiella pneumoniae [27]) was 0.78 µM, the Activity (Lipopolysaccharide (LPS) [28]) was “Active” and the MBC (Acinetobacter baumannii [29]) was 3.13 µM. For the same molecule, the MBC (Acinetobacter baumannii [30]) was 3.13 µM (≈ 9.64 µg/mL), the Activity (Klebsiella pneumoniae [31]) was “Active” and the MIC [32] was 1.56 µM (≈ 4.8 µg/mL). For the same molecule, the MBC (Klebsiella pneumoniae [33]) was 25 µM (≈ 77 µg/mL), the MIC (Rhizopus arrhizus [34]) was 6.25 µM and the MIC (Salmonella enterica) was 0.78 µM. The MIC (Pseudomonas aeruginosa [35]) was 6.25 µM and the MBC (Klebsiella pneumoniae [36]) was 0.78 µM.
